The assay has as its target c-kit (Homo sapiens, UniProt P10721). Kind of assay: c-kit assays of Examples 40 and 41 (AlphaScreen kinase assays at 10 and 100 μM ATP, 33P-ATP filter assay, M-07e SCF-stimulated proliferation and phosphorylation). (In general: In Alpha technology, singlet oxygen from a donor bead excites a nearby acceptor bead.)
Chain of c-kit (P10721 with tags, fused parts or gaps): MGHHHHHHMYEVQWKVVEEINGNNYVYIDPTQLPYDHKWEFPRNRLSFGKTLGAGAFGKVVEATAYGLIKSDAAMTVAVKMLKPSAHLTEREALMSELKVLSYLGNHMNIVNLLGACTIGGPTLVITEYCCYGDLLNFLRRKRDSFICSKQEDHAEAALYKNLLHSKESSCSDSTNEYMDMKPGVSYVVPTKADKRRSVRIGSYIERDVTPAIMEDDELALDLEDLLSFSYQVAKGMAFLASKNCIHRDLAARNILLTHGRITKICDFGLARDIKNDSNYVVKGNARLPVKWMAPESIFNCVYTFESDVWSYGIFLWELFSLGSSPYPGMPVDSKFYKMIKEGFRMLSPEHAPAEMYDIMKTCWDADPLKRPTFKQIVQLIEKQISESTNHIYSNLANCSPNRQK
In turn, `O=C(Nc1ccc(Cc2c[nH]c3ncccc23)cn1)c1ccnc(Cl)c1` [P-0123, 2-Chloro-N-[5-(1H-pyrrolo[2,3-b]pyridin-3-ylmethyl)-pyridin-2-yl]-isonicotinamide] showed a half-maximal inhibitory concentration (IC50) of under 1000 nM.
Next, `C[C@@H](Nc1ccc(Cc2c[nH]c3ncccc23)cn1)c1ccccc1` [P-0125, ((R)-1-Phenyl-ethyl)-[5-(1H-pyrrolo[2,3-b]pyridin-3-ylmethyl)-pyridin-2-yl]-amine]: under 1000 nM.
Next, `c1cc(CNc2ccc(Cc3c[nH]c4ncccc34)cn2)cc(N2CCOCC2)c1` [P-0126, (3-Morpholin-4-yl-benzyl)-[5-(1H-pyrrolo[2,3-b]pyridin-3-ylmethyl)-pyridin-2-yl]-amine]: under 1000 nM; `CC(Nc1ccc(Cc2c[nH]c3ncccc23)cn1)c1ccccc1F` (stereo not shown) [P-0127, [1-(2-Fluoro-phenyl)-ethyl]-[5-(1H-pyrrolo[2,3-b]pyridin-3-ylmethyl)-pyridin-2-yl]-amine]: under 1000 nM; `Fc1cccc(CCNc2ccc(Cc3c[nH]c4ncccc34)cn2)c1` [P-0128, [2-(3-Fluoro-phenyl)-ethyl]-[5-(1H-pyrrolo[2,3-b]pyridin-3-ylmethyl)-pyridin-2-yl]-amine]: under 1000 nM.
The molecule `Clc1cccc(CNc2ccc(Cc3c[nH]c4ncccc34)cn2)c1` [P-0129, (3-chloro-benzyl)-[5-(1H-pyrrolo[2,3-b]pyridin-3-ylmethyl)-pyridin-2-yl]-amine] gave an IC50 of under 1000 nM.
Next, `Cc1cc(CNc2ccc(Cc3c[nH]c4ncccc34)cn2)nn1C` [P-0131, (1,5-Dimethyl-1H-pyrazol-3-ylmethyl)-[5-(1H-pyrrolo[2,3-b]pyridin-3-ylmethyl)-pyridin-2-yl]-amine]: under 1000 nM; `Fc1nc(NCc2ccc(Cl)cc2)ccc1Cc1c[nH]c2ncc(Cl)cc12` [P-0132, (4-Chloro-benzyl)-[5-(5-chloro-1H-pyrrolo[2,3-b]pyridin-3-ylmethyl)-6-fluoro-pyridin-2-yl]-amine]: under 1000 nM; `Cc1nn(Cc2ccc(C(F)(F)F)o2)c(C)c1Cc1c[nH]c2ncccc12` [P-0138, 3-[3,5-Dimethyl-1-(5-trifluoromethyl-furan-2-ylmethyl)-1H-pyrazol-4-ylmethyl]-1H-pyrrolo[2,3-b]pyridine]: under 1000 nM.
Molecule `Cc1nc(-c2ccc(C(F)(F)F)cc2)sc1Cn1nc(C)c(Cc2c[nH]c3ncccc23)c1C` [P-0143, 3-{3,5-Dimethyl-1-[4-methyl-2-(4-trifluoromethyl-phenyl)-thiazol-5-ylmethyl]-1H-pyrazol-4-ylmethyl}-1H-pyrrolo[2,3-b]pyridine] came in with a half-inhibitory concentration (IC50) of under 1000 nM.
`Cc1nc(-c2ccccc2)sc1Cn1nc(C)c(Cc2c[nH]c3ncccc23)c1C` [P-0144, 3-[3,5-Dimethyl-1-(4-methyl-2-phenyl-thiazol-5-ylmethyl)-1H-pyrazol-4-ylmethyl]-1H-pyrrolo[2,3-b]pyridine] showed an IC50 of under 1000 nM.
Consider `COc1ccccc1CNC(=O)n1nc(C)c(Cc2c[nH]c3ncccc23)c1C` [P-0145, 3,5-Dimethyl-4-(1H-pyrrolo[2,3-b]pyridin-3-ylmethyl)-pyrazole-1-carboxylic acid 2-methoxy-benzylamide], for which the IC50 is under 1000 nM.
Next, `Cc1nn(C(=O)NCCc2ccccc2F)c(C)c1Cc1c[nH]c2ncccc12` [P-0148, 3,5-Dimethyl-4-(1H-pyrrolo[2,3-b]pyridin-3-ylmethyl)-pyrazole-1-carboxylic acid [2-(2-fluoro-phenyl)-ethyl]-amide]: under 1000 nM; `Fc1ccc(Cc2c[nH]c3ncccc23)c(F)n1` [P-0154, 3-(2,6-difluoro-pyridin-3-ylmethyl)-1H-pyrrolo[2,3-b]pyridine]: under 1000 nM.
In turn, `Cc1nn(C(=O)NCc2ccc(Cl)cc2)c(C)c1Cc1c[nH]c2ncc(Cl)cc12` [P-0159, 4-(5-Chloro-1H-pyrrolo[2,3-b]pyridin-3-ylmethyl)-3,5-dimethyl-pyrazole-1-carboxylic acid 4-chloro-benzylamide] registered an IC50 of under 1000 nM.
Next, `Clc1ccc(CNc2ccc(Cc3c[nH]c4ncccc34)c(Cl)n2)cc1` [P-0161, (4-Chloro-benzyl)-[6-chloro-5-(1H-pyrrolo[2,3-b]pyridin-3-ylmethyl)-pyridin-2-yl]-amine]: under 1000 nM.
Next, `Cc1nc(NCc2ccc(F)cc2)sc1Cc1c[nH]c2ncccc12` [P-0163, (4-Fluoro-benzyl)-[4-methyl-5-(1H-pyrrolo[2,3-b]pyridin-3-ylmethyl)-thiazol-2-yl]-amine]: under 1000 nM; `Cn1nc(NCc2ccc(F)cc2)cc1Cc1c[nH]c2ncc(Cl)cc12` [P-0170, [5-(5-Chloro-1H-pyrrolo[2,3-b]pyridin-3-ylmethyl)-1-methyl-1H-pyrazol-3-yl]-(4-fluoro-benzyl)-amine]: under 1000 nM; `FC(F)(F)c1ccc(CNc2nc(Cl)c(Cc3c[nH]c4ncccc34)s2)cn1` [P-0173, [4-Chloro-5-(1H-pyrrolo[2,3-b]pyridin-3-ylmethyl)-thiazol-2-yl]-(6-trifluoromethyl-pyridin-3-ylmethyl)-amine]: under 1000 nM.
For `FC(F)(F)c1ccc(CNc2ccc(Cc3c[nH]c4ncccc34)c(Cl)n2)cn1` [P-0174, [6-Chloro-5-(1H-pyrrolo[2,3-b]pyridin-3-ylmethyl)-pyridin-2-yl]-(6-trifluoromethyl-pyridin-3-ylmethyl)-amine] the value was under 1000 nM; for `FC(F)(F)c1ccc(CNc2ccc(Cc3c[nH]c4ncc(Cl)cc34)c(Cl)n2)cn1` [P-0176, [6-Chloro-5-(5-chloro-1H-pyrrolo[2,3-b]pyridin-3-ylmethyl)-pyridin-2-yl]-(6-trifluoromethyl-pyridin-3-ylmethyl)-amine], under 1000 nM.
The molecule `FC(F)(F)c1ccc(CNc2ccc(Cc3c[nH]c4ncccc34)cn2)cn1` [P-0182, [5-(1H-Pyrrolo[2,3-b]pyridin-3-ylmethyl)-pyridin-2-yl]-(6-trifluoromethyl-pyridin-3-ylmethyl)-amine] came in with an IC50 of under 1000 nM.
For `Fc1nc(NCc2ccc(C(F)(F)F)nc2)ccc1Cc1c[nH]c2ncc(Cl)cc12` [P-0186, [5-(5-Chloro-1H-pyrrolo[2,3-b]pyridin-3-ylmethyl)-6-fluoro-pyridin-2-yl]-(6-trifluoromethyl-pyridin-3-ylmethyl)-amine] the value was under 1000 nM; for `COc1cnc2[nH]cc(Cc3ccc(NCc4ccc(C(F)(F)F)nc4)nc3F)c2c1` [P-0187, [6-Fluoro-5-(5-methoxy-1H-pyrrolo[2,3-b]pyridin-3-ylmethyl)-pyridin-2-yl]-(6-trifluoromethyl-pyridin-3-ylmethyl)-amine], under 1000 nM.
Next, `Fc1nc(NCc2ccc(C(F)(F)F)nc2)ccc1Cc1c[nH]c2ncccc12` [P-0188, [6-Fluoro-5-(1H-pyrrolo[2,3-b]pyridin-3-ylmethyl)-pyridin-2-yl]-(6-trifluoromethyl-pyridin-3-ylmethyl)-amine]: under 1000 nM; `COc1ccc(CNc2nc(Cl)c(Cc3c[nH]c4ncc(Cl)cc34)s2)cn1` [P-0190, [4-Chloro-5-(5-chloro-1H-pyrrolo[2,3-b]pyridin-3-ylmethyl)-thiazol-2-yl]-(6-methoxy-pyridin-3-ylmethyl)-amine]: under 1000 nM.
For `Clc1cnc2[nH]cc(Cc3sc(NCc4ccccc4)nc3Cl)c2c1` [P-0192, Benzyl-[4-chloro-5-(5-chloro-1H-pyrrolo[2,3-b]pyridin-3-ylmethyl)-thiazol-2-yl]-amine], the IC50 is under 1000 nM.
Next, `COc1cccc(CNc2nc(Cl)c(Cc3c[nH]c4ncc(Cl)cc34)s2)c1` [P-0193, [4-Chloro-5-(5-chloro-1H-pyrrolo[2,3-b]pyridin-3-ylmethyl)-thiazol-2-yl]-(3-methoxy-benzyl)-amine]: under 1000 nM.
For `Clc1ccc(CNc2nc(Cl)c(Cc3c[nH]c4ncc(Cl)cc34)s2)cc1` [P-0194, (4-Chloro-benzyl)-[4-chloro-5-(5-chloro-1H-pyrrolo[2,3-b]pyridin-3-ylmethyl)-thiazol-2-yl]-amine] the value was under 1000 nM; for `CCc1nc(C)c(CNc2nc(Cl)c(Cc3c[nH]c4ncc(Cl)cc34)s2)[nH]1` [P-0197, [4-Chloro-5-(5-chloro-1H-pyrrolo[2,3-b]pyridin-3-ylmethyl)-thiazol-2-yl]-(2-ethyl-5-methyl-3H-imidazol-4-ylmethyl)-amine], under 1000 nM.
Turning to `COc1cccc(CNc2nc(Cl)c(Cc3c[nH]c4ncc(Cl)cc34)s2)n1` [P-0199, [4-Chloro-5-(5-chloro-1H-pyrrolo[2,3-b]pyridin-3-ylmethyl)-thiazol-2-yl]-(6-methoxy-pyridin-2-ylmethyl)-amine], the IC50 was under 1000 nM.
Next, `CCc1nc(C)c(CNc2nc(Cl)c(Cc3c[nH]c4ncccc34)s2)[nH]1` [P-0205, [4-Chloro-5-(1H-pyrrolo[2,3-b]pyridin-3-ylmethyl)-thiazol-2-yl]-(2-ethyl-5-methyl-3H-imidazol-4-ylmethyl)-amine]: under 1000 nM; `Cc1cc(CNc2nc(Cl)c(Cc3c[nH]c4ncccc34)s2)sc1C` [P-0208, [4-Chloro-5-(1H-pyrrolo[2,3-b]pyridin-3-ylmethyl)-thiazol-2-yl]-(4,5-dimethyl-thiophen-2-ylmethyl)-amine]: under 1000 nM; `c1ccc(CCNc2ccc(Cc3c[nH]c4ncccc34)cn2)cc1` [P-0211, Phenethyl-[5-(1H-pyrrolo[2,3-b]pyridin-3-ylmethyl)-pyridin-2-yl]-amine]: under 1000 nM.
Next, `Fc1ccc(CNc2ccc(Cc3c[nH]c4ncccc34)cn2)c(F)c1` [P-0212, (2,4-Difluoro-benzyl)-[5-(1H-pyrrolo[2,3-b]pyridin-3-ylmethyl)-pyridin-2-yl]-amine]: under 1000 nM; `Fc1ccccc1CNc1ccc(Cc2c[nH]c3ncccc23)cn1` [P-0213, (2-Fluoro-benzyl)-[5-(1H-pyrrolo[2,3-b]pyridin-3-ylmethyl)-pyridin-2-yl]-amine]: under 1000 nM; `Brc1cnccc1CNc1ccc(Cc2c[nH]c3ncccc23)cn1` [P-0214, (3-Bromo-pyridin-4-ylmethyl)-[5-(1H-pyrrolo[2,3-b]pyridin-3-ylmethyl)-pyridin-2-yl]-amine]: under 1000 nM.

The IC50 is the concentration that inhibits the measured activity by half. Read a low IC50 as inhibition by little substance.

These data come from US9487515B2, “Compounds modulating c-fms and/or c-kit activity and uses therefor” (Plexxikon Inc., priority 2006, dated 2016).
